The subject of the series is CCRIS mutagenicity, Ames/micronucleus/aberration tests. As to the kind of experiment: CCRIS mutagenicity studies.
The mark [1] stands for this setting: Test System: AMES SALMONELLA TYPHIMURIUM, Strain/Indicator: TA98, Metabolic Activation: NONE, Method: STANDARD PLATE.
Setting [2] is: Test System: AMES SALMONELLA TYPHIMURIUM, Strain/Indicator: TA100, Metabolic Activation: NONE, Method: STANDARD PLATE.
Where [3] appears, read: Test System: AMES SALMONELLA TYPHIMURIUM, Strain/Indicator: TA1535, Metabolic Activation: NONE, Method: STANDARD PLATE.
Where [4] appears, read: Test System: AMES SALMONELLA TYPHIMURIUM, Strain/Indicator: TA1537, Metabolic Activation: NONE, Method: STANDARD PLATE.
Setting [5] is: Test System: AMES SALMONELLA TYPHIMURIUM, Strain/Indicator: TA100, Metabolic Activation: RAT, LIVER, S-9, AROCLOR 1254, Method: STANDARD PLATE.

Active and inactive are the calls of the source. How the calls were made is not given here.

Turning to `CCCCCCCCCCCC(=O)OOC(=O)CCCCCCCCCCC`, the mutagenic call (Test System: AMES SALMONELLA TYPHIMURIUM, Strain/Indicator: TA98, Metabolic Activation: HAMSTER, LIVER, S-9, AROCLOR 1254 (10%), Method: STANDARD PLATE) was “inactive; negative”; the mutagenic call under setting [1] is “inactive; negative”; the mutagenic call (Test System: AMES SALMONELLA TYPHIMURIUM, Strain/Indicator: TA98, Metabolic Activation: RAT, LIVER, S-9, AROCLOR 1254 (10%), Method: STANDARD PLATE) was “inactive; negative”; the mutagenic call (Test System: AMES SALMONELLA TYPHIMURIUM, Strain/Indicator: TA100, Metabolic Activation: HAMSTER, LIVER, S-9, AROCLOR 1254 (10%), Method: STANDARD PLATE) is “inactive; negative”; the mutagenic call under setting [2] was “inactive; negative”; the mutagenic call (Test System: AMES SALMONELLA TYPHIMURIUM, Strain/Indicator: TA100, Metabolic Activation: RAT, LIVER, S-9, AROCLOR 1254 (10%), Method: STANDARD PLATE) is “inactive; negative”. The mutagenic call (Test System: AMES SALMONELLA TYPHIMURIUM, Strain/Indicator: TA1535, Metabolic Activation: HAMSTER, LIVER, S-9, AROCLOR 1254 (10%), Method: STANDARD PLATE) was “inactive; negative”; the mutagenic call under setting [3] was “inactive; negative”; the mutagenic call (Test System: AMES SALMONELLA TYPHIMURIUM, Strain/Indicator: TA1535, Metabolic Activation: RAT, LIVER, S-9, AROCLOR 1254 (10%), Method: STANDARD PLATE) was “inactive; negative”; the mutagenic call (Test System: AMES SALMONELLA TYPHIMURIUM, Strain/Indicator: TA1537, Metabolic Activation: HAMSTER, LIVER, S-9, AROCLOR 1254 (10%), Method: STANDARD PLATE) was “inactive; negative”; the mutagenic call under setting [4] was “inactive; negative”; the mutagenic call (Test System: AMES SALMONELLA TYPHIMURIUM, Strain/Indicator: TA1537, Metabolic Activation: RAT, LIVER, S-9, AROCLOR 1254 (10%), Method: STANDARD PLATE) is “inactive; negative”. Moreover, the mutagenic call (Test System: AMES SALMONELLA TYPHIMURIUM, Strain/Indicator: TA1538, Metabolic Activation: HAMSTER, LIVER, S-9, AROCLOR 1254 (10%), Method: STANDARD PLATE) is “inactive; negative”; the mutagenic call (Test System: AMES SALMONELLA TYPHIMURIUM, Strain/Indicator: TA1538, Metabolic Activation: NONE, Method: STANDARD PLATE) is “inactive; negative”; the mutagenic call (Test System: AMES SALMONELLA TYPHIMURIUM, Strain/Indicator: TA1538, Metabolic Activation: RAT, LIVER, S-9, AROCLOR 1254 (10%), Method: STANDARD PLATE) was “inactive; negative”; the mutagenic call (Test System: MOUSE LYMPHOMA, Strain/Indicator: L5178Y (TK+/TK-), Metabolic Activation: NONE, Method: SUSPENSION/PLATE) is “inactive; negative. reevaluation of results: inconclusive”; the mutagenic call (Test System: MOUSE LYMPHOMA, Strain/Indicator: L5178Y (TK+/TK-), Metabolic Activation: RAT, LIVER, S-9, AROCLOR 1254, Method: SUSPENSION/PLATE) was “inactive; negative. reevaluation of results: inconclusive”.

For the compound `C1OC1C1CO1` (stereo unspecified), the mutagenic call runs as follows: (End Point: IN VITRO CHROMOSOMAL ABERRATIONS, Test System: HUMAN PERIPHERAL LYMPHOCYTES, Metabolic Activation: NONE, Method: FISH (DUAL COLOR FOR CHROMOSOMES 7, 8, 12 AND X)) “active; positive (hyperdiploidy of chromosomes 12 and x)”; (End Point: IN VITRO MICRONUCLEUS, Test System: HUMAN PERIPHERAL LYMPHOCYTES, Metabolic Activation: NONE) “active; positive”; under setting [1], “active; positive”; under setting [2], “active; positive”; under setting [5], “active; positive”; (Test System: AMES SALMONELLA TYPHIMURIUM, Strain/Indicator: TA102, Metabolic Activation: NONE, Method: STANDARD PLATE) “active; positive”. The mutagenic call is “active; positive” under setting [3]; “inactive; negative” (Test System: AMES SALMONELLA TYPHIMURIUM, Strain/Indicator: TA7004, Metabolic Activation: NONE, Method: STANDARD PLATE); “inactive; negative” (Test System: AMES SALMONELLA TYPHIMURIUM, Strain/Indicator: TA7005, Metabolic Activation: NONE, Method: STANDARD PLATE); “active; positive” (Test System: CHINESE HAMSTER V-79, Strain/Indicator: V-79/6-THIOGUANINE, Metabolic Activation: NONE, Method: FLASK ASSAY); “active; positive” (Test System: UDS MOUSE EPIDERMIS IN VIVO/IN VITRO, Strain/Indicator: HOS:HR-1/THYMIDINE INCORPORATION, Metabolic Activation: NONE, Method: LIQUID SCINTILLATION).

In the case of `CC[C@H](C)[C@H](NC(=O)[C@H](Cc1ccc(O)cc1)NC(=O)CNC(=O)[C@@H](NC(=O)[C@@H](NC(=O)[C@H](CS)NC(=O)[C@H](CC(N)=O)NC(=O)[C@H](CS)NC(=O)[C@H](C)NC(=O)[C@H](Cc1ccc(O)cc1)NC(=O)[C@H](CCCCN)NC(=O)[C@H](CC(=O)O)NC(=O)[C@H](CC(C)C)NC(=O)[C@H](C)NC(=O)[C@H](CCC(=O)O)NC(=O)[C@@H](NC(=O)[C@H](Cc1ccc(O)cc1)NC(=O)[C@H](CCSC)NC(=O)[C@H](CS)NC(=O)[C@@H](NC(=O)CNC(=O)[C@H](CC(=O)O)NC(=O)[C@H](Cc1cnc[nH]1)NC(=O)[C@H](CC(C)C)NC(=O)[C@H](CS)NC(=O)[C@H](Cc1ccc(O)cc1)NC(=O)CNC(=O)[C@H](CC(=O)O)NC(=O)[C@H](Cc1cnc[nH]1)NC(=O)[C@H](CO)NC(=O)[C@H](CC(C)C)NC(=O)[C@@H]1CCCN1C(=O)[C@H](CS)NC(=O)[C@H](CCC(=O)O)NC(=O)[C@H](CO)NC(=O)[C@H](CC(=O)O)NC(=O)[C@H](CO)NC(=O)[C@@H](N)CC(N)=O)C(C)C)[C@@H](C)CC)C(C)C)C(C)C)C(=O)NCC(=O)N[C@@H](CCC(=O)O)C(=O)N[C@@H](CCCNC(=N)N)C(=O)N[C@@H](CS)C(=O)N[C@@H](CCC(N)=O)C(=O)N[C@@H](Cc1ccc(O)cc1)C(=O)N[C@@H](CCCNC(=N)N)C(=O)N[C@@H](CC(=O)O)C(=O)N[C@@H](CC(C)C)C(=O)N[C@@H](CCCCN)C(=O)N[C@@H](Cc1c[nH]c2ccccc12)C(=O)N[C@@H](Cc1c[nH]c2ccccc12)C(=O)N[C@@H](CCC(=O)O)C(=O)N[C@@H](CC(C)C)C(=O)N[C@@H](CCCNC(=N)N)C(=O)O`, the mutagenic call reads like this: under setting [1], “inactive; negative”; (Test System: AMES SALMONELLA TYPHIMURIUM, Strain/Indicator: TA98, Metabolic Activation: RAT, LIVER, S-9, PHENOBARBITAL AND 5,6-BENZOFLAVONE, Method: STANDARD PLATE) “inactive; negative”; under setting [2], “inactive; negative”; (Test System: AMES SALMONELLA TYPHIMURIUM, Strain/Indicator: TA100, Metabolic Activation: RAT, LIVER, S-9, PHENOBARBITAL AND 5,6-BENZOFLAVONE, Method: STANDARD PLATE) “inactive; negative”; under setting [3], “inactive; negative”; (Test System: AMES SALMONELLA TYPHIMURIUM, Strain/Indicator: TA1535, Metabolic Activation: RAT, LIVER, S-9, PHENOBARBITAL AND 5,6-BENZOFLAVONE, Method: STANDARD PLATE) “inactive; negative”. Besides, the mutagenic call under setting [4] is “inactive; negative”; the mutagenic call (Test System: AMES SALMONELLA TYPHIMURIUM, Strain/Indicator: TA1537, Metabolic Activation: RAT, LIVER, S-9, PHENOBARBITAL AND 5,6-BENZOFLAVONE, Method: STANDARD PLATE) is “inactive; negative”; the mutagenic call (Test System: E. COLI, Strain/Indicator: WP2 UVRA, Metabolic Activation: NONE, Method: STANDARD PLATE) was “inactive; negative”; the mutagenic call (Test System: E. COLI, Strain/Indicator: WP2 UVRA, Metabolic Activation: RAT, LIVER, S-9, PHENOBARBITAL AND 5,6-BENZOFLAVONE, Method: STANDARD PLATE) was “inactive; negative”.

Take `O=NN1CCSC1`: the mutagenic call was “inactive; negative” (Test System: AMES SALMONELLA TYPHIMURIUM, Strain/Indicator: TA98, Metabolic Activation: NONE, Method: PREINCUBATION); “inactive; negative” under setting [1]; “inactive; negative” (Test System: AMES SALMONELLA TYPHIMURIUM, Strain/Indicator: TA98, Metabolic Activation: RAT, LIVER, S-9, AROCLOR 1254, Method: PREINCUBATION); “active; positive” (Test System: AMES SALMONELLA TYPHIMURIUM, Strain/Indicator: TA98, Metabolic Activation: RAT, LIVER, S-9, AROCLOR 1254, Method: STANDARD PLATE); “active; positive” under setting [2]; “active; positive” (Test System: AMES SALMONELLA TYPHIMURIUM, Strain/Indicator: TA100, Metabolic Activation: RAT, LIVER, S-9, AROCLOR 1254, Method: PREINCUBATION). The mutagenic call under setting [5] is “active; positive” and the mutagenic call (Test System: UDS RAT PRIMARY HEPATOCYTES, Strain/Indicator: THY INCORP, Metabolic Activation: NONE) is “active; positive”.
